Reference: US11135234B2, “Effective aminoglycoside antibiotic for multidrug-resistant bacteria” (MICROBIAL CHEMISTRY RESEARCH FOUNDATION, priority 2015, dated 2021)
In brackets after ≈: the same amount, converted by molar mass.

Tests used:
P. aeruginosa MSC01035 = assay: MIC, agar plate dilution method, P. aeruginosa MSC01035; type: cell-based, Pseudomonas aeruginosa; settings: P. aeruginosa MSC01035, ABK-resistant
How it was run: (§1)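 Minimal inhibitory concentration (μg/mL) was determined by agar plate dilution following the Japan Society of Chemotherapy method.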

E. coli JM109/pMW218 = assay: MIC, agar plate dilution method, E. coli JM109/pMW218; type: cell-based, Escherichia coli; settings: for minimal inhibitory concentration (MIC): E. coli JM109/pMW218, Sensitive bacterium
How it was run: as §1

P. aeruginosa MSC17707 = assay: MIC, agar plate dilution method, P. aeruginosa MSC17707; type: cell-based, Pseudomonas aeruginosa; settings: for minimal inhibitory concentration (MIC): P. aeruginosa MSC17707, AMK-resistant
How it was run: as §1

[1] = tested on: A. baumannii ATCC BAA-1710; assay: MIC, agar plate dilution method, A. baumannii ATCC BAA-1710; type: cell-based, Acinetobacter baumannii; settings: for minimal inhibitory concentration (MIC): A. baumannii ATCC BAA-1710, MDRA
How it was run: as §1

E. faecium ATCC19434 = assay: MIC, agar plate dilution method, E. faecium ATCC19434; type: cell-based, Enterococcus faecium; settings: for minimal inhibitory concentration (MIC): E. faecium ATCC19434
How it was run: as §1

S. marcescens TH-0447 = assay: MIC, agar plate dilution method, S. marcescens TH-0447; type: cell-based, Serratia marcescens; settings: for minimal inhibitory concentration (MIC): S. marcescens TH-0447, AMK-resistant
How it was run: as §1

S. marcescens GN6944 = assay: MIC, agar plate dilution method, S. marcescens GN6944; type: cell-based, Serratia marcescens; settings: S. marcescens GN6944, GM-resistant
How it was run: as §1

P. aeruginosa PAO1 = assay: MIC, agar plate dilution method, P. aeruginosa PAO1; type: cell-based, Pseudomonas aeruginosa; settings: for minimal inhibitory concentration (MIC): P. aeruginosa PAO1, Sensitive bacterium
How it was run: as §1

S. aureus RN4220/pMS520 = assay: MIC, agar plate dilution method, S. aureus RN4220/pMS520; type: cell-based, Staphylococcus aureus; settings: for minimal inhibitory concentration (MIC): S. aureus RN4220/pMS520, MRSA
How it was run: as §1

P. aeruginosa PAO1/GN315 = assay: MIC, agar plate dilution method, P. aeruginosa PAO1/GN315; type: cell-based, Pseudomonas aeruginosa; settings: for minimal inhibitory concentration (MIC): P. aeruginosa PAO1/GN315, AMK-resistant
How it was run: as §1

[2] = tested on: K. pneumoniae ATCC BAA-1705; assay: MIC, agar plate dilution method, K. pneumoniae ATCC BAA-1705; type: cell-based, Klebsiella pneumoniae; settings: for minimal inhibitory concentration (MIC): K. pneumoniae ATCC BAA-1705, KPC-producing strain
How it was run: as §1

[3] = tested on: K. pneumoniae ATCC BAA-2146; assay: MIC, agar plate dilution method, K. pneumoniae ATCC BAA-2146; type: cell-based, Klebsiella pneumoniae; settings: for minimal inhibitory concentration (MIC): K. pneumoniae ATCC BAA-2146, NDM-producing strain
How it was run: as §1

S. aureus MF490 = assay: MIC, agar plate dilution method, S. aureus MF490; type: cell-based, Staphylococcus aureus; settings: for minimal inhibitory concentration (MIC): S. aureus MF490, MRSA
How it was run: as §1

S. aureus RN4220 = assay: MIC, agar plate dilution method, S. aureus RN4220; type: cell-based, Staphylococcus aureus; settings: for minimal inhibitory concentration (MIC): S. aureus RN4220, Sensitive bacterium
How it was run: as §1

| SMILES | minimal inhibitory concentration (MIC) (P. aeruginosa MSC01035) | minimal inhibitory concentration (MIC) (E. coli JM109/pMW218) | minimal inhibitory concentration (MIC) (P. aeruginosa MSC17707) | minimal inhibitory concentration (MIC) [1] | minimal inhibitory concentration (MIC) (E. faecium ATCC19434) | minimal inhibitory concentration (MIC) (S. marcescens TH-0447) | minimal inhibitory concentration (MIC) (S. marcescens GN6944) | minimal inhibitory concentration (MIC) (P. aeruginosa PAO1) | minimal inhibitory concentration (MIC) (S. aureus RN4220/pMS520) | minimal inhibitory concentration (MIC) (P. aeruginosa PAO1/GN315) | minimal inhibitory concentration (MIC) [2] | minimal inhibitory concentration (MIC) [3] | minimal inhibitory concentration (MIC) (S. aureus MF490) | minimal inhibitory concentration (MIC) (S. aureus RN4220) | also measured |
| --- | --- | --- | --- | --- | --- | --- | --- | --- | --- | --- | --- | --- | --- | --- | --- |
| CNC1C(OC2OC(CO)C(N)C(O)C2O)OC2CC(N)C(OC3C(N)CC(N)C(O)C3O)OC2C1O (stereo not drawn) [Compound I3, 2″,3″-diepiapramycin] | 64 µg/mL (≈ 119 µM) | 4 µg/mL (≈ 7.41 µM) | 32 µg/mL (≈ 59.3 µM) | 16 µg/mL (≈ 29.7 µM) | 32 µg/mL (≈ 59.3 µM) | 32 µg/mL (≈ 59.3 µM) | 16 µg/mL (≈ 29.7 µM) | 16 µg/mL (≈ 29.7 µM) | 8 µg/mL (≈ 14.8 µM) | 32 µg/mL (≈ 59.3 µM) | 4 µg/mL (≈ 7.41 µM) | 4 µg/mL (≈ 7.41 µM) | 32 µg/mL (≈ 59.3 µM) | 8 µg/mL (≈ 14.8 µM) |  |
| CNC1C(O[C@H]2OC(CF)[C@@H](N)[C@H](O)C2O)O[C@H]2CC(N)[C@@H](O[C@@H]3C(N)C[C@@H](N)C(O)[C@H]3O)OC2C1O (stereo partly drawn) [Compound J4, 6″-deoxy-6″-fluoroapramycin] |  |  |  |  |  |  |  |  |  |  |  |  |  |  | MIC (P. aeruginosa MSC01035; Pseudomonas aeruginosa, read-out: minimal inhibitory concentration (MIC)): 16 µg/mL (≈ 29.5 µM); MIC (E. coli JM109/pMW218; Escherichia coli, JM109/PMW218, E. coli JM109/pMW218, Sensitive bacterium, read-out: minimal inhibitory concentration (MIC)): 2 µg/mL (≈ 3.69 µM); MIC (P. aeruginosa MSC17707; Pseudomonas aeruginosa, MSC17707, P. aeruginosa MSC17707, AMK-resistant, read-out: minimal inhibitory concentration (MIC)): 16 µg/mL (≈ 29.5 µM); MIC ([1]; Acinetobacter baumannii, ATCCBAA1710, A. baumannii ATCC BAA-1710, MDRA, read-out: minimal inhibitory concentration (MIC)): 32 µg/mL (≈ 59.1 µM); MIC (E. faecium ATCC19434; Enterococcus faecium, ATCC19434, E. faecium ATCC19434, read-out: minimal inhibitory concentration (MIC)): 32 µg/mL (≈ 59.1 µM); MIC (S. marcescens TH-0447; Serratia marcescens, TH0447, S. marcescens TH-0447, AMK-resistant, read-out: minimal inhibitory concentration (MIC)): 16 µg/mL (≈ 29.5 µM); MIC (S. marcescens GN6944; Serratia marcescens, read-out: minimal inhibitory concentration (MIC)): 16 µg/mL (≈ 29.5 µM); MIC (P. aeruginosa PAO1; Pseudomonas aeruginosa, PAO1, P. aeruginosa PAO1, Sensitive bacterium, read-out: minimal inhibitory concentration (MIC)): 8 µg/mL (≈ 14.8 µM); MIC (S. aureus RN4220/pMS520; Staphylococcus aureus, MRSA, read-out: minimal inhibitory concentration (MIC), S. aureus RN4220/pMS520, MRSA): 4 µg/mL (≈ 7.39 µM); MIC (P. aeruginosa PAO1/GN315; Pseudomonas aeruginosa, read-out: minimal inhibitory concentration (MIC), P. aeruginosa PAO1/GN315, AMK-resistant): 8 µg/mL (≈ 14.8 µM); MIC ([2]; Klebsiella pneumoniae, ATCCBAA1705, K. pneumoniae ATCC BAA-1705, KPC-producing strain, read-out: minimal inhibitory concentration (MIC)): 2 µg/mL (≈ 3.69 µM); MIC ([3]; Klebsiella pneumoniae, ATCCBAA2146, K. pneumoniae ATCC BAA-2146, NDM-producing strain, read-out: minimal inhibitory concentration (MIC)): 2 µg/mL (≈ 3.69 µM); MIC (S. aureus MF490; Staphylococcus aureus, MRSA, read-out: minimal inhibitory concentration (MIC)): 16 µg/mL (≈ 29.5 µM); MIC (S. aureus RN4220; Staphylococcus aureus, RN4220, S. aureus RN4220, Sensitive bacterium, read-out: minimal inhibitory concentration (MIC)): 8 µg/mL (≈ 14.8 µM) |
| CN[C@@H]1[C@@H](O[C@H]2O[C@H](C)[C@@H](N)C[C@H]2O)O[C@H]2C[C@@H](N)[C@@H](O[C@H]3[C@H](O)[C@@H](O)[C@H](N)C[C@@H]3N)O[C@@H]2[C@@H]1O [Compound K4, 3″,6″-dideoxyapramycin] | 16 µg/mL (≈ 31.5 µM) | 1 µg/mL (≈ 1.97 µM) | 16 µg/mL (≈ 31.5 µM) | 16 µg/mL (≈ 31.5 µM) | 8 µg/mL (≈ 15.8 µM) | 8 µg/mL (≈ 15.8 µM) | 4 µg/mL (≈ 7.88 µM) | 8 µg/mL (≈ 15.8 µM) | 2 µg/mL (≈ 3.94 µM) | 8 µg/mL (≈ 15.8 µM) | 2 µg/mL (≈ 3.94 µM) | 1 µg/mL (≈ 1.97 µM) | 8 µg/mL (≈ 15.8 µM) | 2 µg/mL (≈ 3.94 µM) |  |
